Source: US20180244699A1, “1-HYDROXY-3H-2,1-BENZOXABOROLE DERIVATIVES AND THEIR USE AS MICROBIOCIDES” (Syngenta Participations AG, priority 2015, published 2018)

Test system: Glomerella lagenarium (Colletotrichum lagenarium)
Test: Glomerella lagenarium (Colletotrichum lagenarium) / liquid culture (anthracnose)
Type: cell-based
Conditions: Colletotrichum orbiculare, growth inhibition photometrically 3-4 days after application, compared to untreated control
Method: (§1) 3. Glomerella lagenarium (Colletotrichum lagenarium)/Liquid Culture (Anthracnose) Conidia of the fungus from cryogenic storage are directly mixed into nutrient broth (PDB potato dextrose broth). After placing a (DMSO) solution of test compound into a microtiter plate (96-well format), the nutrient broth containing the fungal spores is added. The test plates are incubated at 24° C. and the inhibition of growth is measured photometrically 3-4 days after application.

SMILES | inhibition of growth at 20 ppm [%]
COC(=O)c1ccc2c(c1OC)B(O)OC2 [Compound 1, methyl 1-hydroxy-7-methoxy-3H-2,1-benzoxaborole-6-carboxylate] | ≥ 80
COC(=O)c1ccc2c(c1O)B(O)OC2 [Compound 2, methyl 1,7-dihydroxy-3H-2,1-benzoxaborole-6-carboxylate] | ≥ 80
COC(=O)c1ccc2c(c1Cl)B(O)OC2 [Compound 3, methyl 7-chloro-1-hydroxy-3H-2,1-benzoxaborole-6-carboxylate] | ≥ 80
CCOC(=O)c1ccc2c(c1Cl)B(O)OC2 [Compound 9, ethyl 7-chloro-1-hydroxy-3H-2,1-benzoxaborole-6-carboxylate] | ≥ 80
COc1c(C(=O)OCC(F)F)ccc2c1B(O)OC2 [Compound 12, 2,2-difluoroethyl 1-hydroxy-7-methoxy-3H-2,1-benzoxaborole-6-carboxylate] | ≥ 80
COc1c(C(=O)OCn2cccn2)ccc2c1B(O)OC2 [Compound 86, pyrazol-1-ylmethyl 1-hydroxy-7-methoxy-3H-2,1-benzoxaborole-6-carboxylate] | ≥ 80
COc1c(C(=O)OCC#Cc2ccccc2)ccc2c1B(O)OC2 [Compound 132, 3-phenylprop-2-ynyl 1-hydroxy-7-methoxy-3H-2,1-benzoxaborole-6-carboxylate] | ≥ 80

Test system: Blumeria graminis f. sp. tritici (Erysiphe graminis f. sp. tritici)
Test: Blumeria graminis f. sp. tritici / wheat / leaf disc preventative (powdery mildew on wheat)
Type: in vivo
Conditions: 200 ppm, wheat leaf segments, inoculated 1 day after application, compared to untreated control
Method: 4. Blumeria Graminis f. Sp. Tritici (Erysiphe graminis f. Sp. Tritici)/Wheat/Leaf Disc Preventative (Powdery Mildew on Wheat)
Wheat leaf segments cv. Kanzler are placed on agar in a multiwell plate (24-well format) and sprayed with the formulated test compound diluted in water. The leaf disks are inoculated by shaking powdery mildew infected plants above the test plates 1 day after application. The inoculated leaf disks are incubated at 20° C. and 60% rh under a light regime of 24 h darkness followed by 12 h light/12 h darkness in a climate chamber and the activity of a compound is assessed as percent disease control compared to untreated when an appropriate level of disease damage appears on untreated check leaf segments (6-8 days after application).

SMILES | control of Blumeria graminis f. sp. tritici
COc1c(C(=O)NC(C)c2ncc(F)cc2F)ccc2c1B(O)OC2 (centres unmarked) [Compound 20, N-[1-(3,5-difluoro-2-pyridyl)ethyl]-1-hydroxy-7-methoxy-3H-2,1-benzoxaborole-6-carboxamide] | at least 80%

Test system: Gaeumannomyces graminis
Test: Gaeumannomyces graminis / liquid culture (take-all of cereals)
Type: cell-based
Conditions: growth inhibition photometrically 4-5 days after application, compared to untreated control
Summary of the method: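 Mycelial fragments from cryogenic storage in potato dextrose broth added to compound in DMSO, 96-well format. Incubated at 24° C; growth inhibition read photometrically 4-5 days after application.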

SMILES | inhibition of growth at 20 ppm [%]
COC(=O)c1ccc2c(c1OC)B(O)OC2 [Compound 1, methyl 1-hydroxy-7-methoxy-3H-2,1-benzoxaborole-6-carboxylate] | ≥ 80
COC(=O)c1ccc2c(c1O)B(O)OC2 [Compound 2, methyl 1,7-dihydroxy-3H-2,1-benzoxaborole-6-carboxylate] | ≥ 80
CCOC(=O)c1ccc2c(c1Cl)B(O)OC2 [Compound 9, ethyl 7-chloro-1-hydroxy-3H-2,1-benzoxaborole-6-carboxylate] | ≥ 80
COc1c(C(=O)OCC(F)F)ccc2c1B(O)OC2 [Compound 12, 2,2-difluoroethyl 1-hydroxy-7-methoxy-3H-2,1-benzoxaborole-6-carboxylate] | ≥ 80
COc1c(C(=O)OCn2cccn2)ccc2c1B(O)OC2 [Compound 86, pyrazol-1-ylmethyl 1-hydroxy-7-methoxy-3H-2,1-benzoxaborole-6-carboxylate] | ≥ 80
COc1c(C(=O)OCC#Cc2ccccc2)ccc2c1B(O)OC2 [Compound 132, 3-phenylprop-2-ynyl 1-hydroxy-7-methoxy-3H-2,1-benzoxaborole-6-carboxylate] | ≥ 80

Test system: Monographella nivalis (Microdochium nivale)
Test: Monographella nivalis (Microdochium nivale) / liquid culture (foot rot cereals)
Type: cell-based
Conditions: growth inhibition photometrically 4-5 days after application, compared to untreated control
Summary of the method: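 Conidia from cryogenic storage were mixed into potato dextrose broth and added to wells holding test compound in DMSO. Incubation was at 24° C, with growth inhibition measured photometrically 4-5 days after application.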

SMILES | inhibition of growth at 20 ppm [%]
COC(=O)c1ccc2c(c1OC)B(O)OC2 [Compound 1, methyl 1-hydroxy-7-methoxy-3H-2,1-benzoxaborole-6-carboxylate] | ≥ 80
COC(=O)c1ccc2c(c1O)B(O)OC2 [Compound 2, methyl 1,7-dihydroxy-3H-2,1-benzoxaborole-6-carboxylate] | ≥ 80
COC(=O)c1ccc2c(c1Cl)B(O)OC2 [Compound 3, methyl 7-chloro-1-hydroxy-3H-2,1-benzoxaborole-6-carboxylate] | ≥ 80
CCOC(=O)c1ccc2c(c1Cl)B(O)OC2 [Compound 9, ethyl 7-chloro-1-hydroxy-3H-2,1-benzoxaborole-6-carboxylate] | ≥ 80
COc1c(C(=O)OCC(F)F)ccc2c1B(O)OC2 [Compound 12, 2,2-difluoroethyl 1-hydroxy-7-methoxy-3H-2,1-benzoxaborole-6-carboxylate] | ≥ 80
COc1c(C(=O)OCn2cccn2)ccc2c1B(O)OC2 [Compound 86, pyrazol-1-ylmethyl 1-hydroxy-7-methoxy-3H-2,1-benzoxaborole-6-carboxylate] | ≥ 80
COc1c(C(=O)OCC#Cc2ccccc2)ccc2c1B(O)OC2 [Compound 132, 3-phenylprop-2-ynyl 1-hydroxy-7-methoxy-3H-2,1-benzoxaborole-6-carboxylate] | ≥ 80

Test system: Mycosphaerella arachidis (Cercospora arachidicola)
Test: Mycosphaerella arachidis (Cercospora arachidicola) / liquid culture (early leaf spot)
Type: cell-based
Conditions: growth inhibition photometrically 4-5 days after application, compared to untreated control
Method: as §1, with “9. Mycosphaerella arachidis (Cercospora arachidicola)/Liquid” for “3. Glomerella lagenarium (Colletotrichum lagenarium)/Liquid”, “(Early Leaf Spot)” for “(Anthracnose)”, “determined” for “measured”, “4-5” for “3-4”

SMILES | inhibition of growth at 20 ppm [%]
COC(=O)c1ccc2c(c1OC)B(O)OC2 [Compound 1, methyl 1-hydroxy-7-methoxy-3H-2,1-benzoxaborole-6-carboxylate] | ≥ 80
COC(=O)c1ccc2c(c1O)B(O)OC2 [Compound 2, methyl 1,7-dihydroxy-3H-2,1-benzoxaborole-6-carboxylate] | ≥ 80
COC(=O)c1ccc2c(c1Cl)B(O)OC2 [Compound 3, methyl 7-chloro-1-hydroxy-3H-2,1-benzoxaborole-6-carboxylate] | ≥ 80
COc1c(C(=O)OCn2cccn2)ccc2c1B(O)OC2 [Compound 86, pyrazol-1-ylmethyl 1-hydroxy-7-methoxy-3H-2,1-benzoxaborole-6-carboxylate] | ≥ 80

Test system: Phytophthora infestans
Test: whole plant or invertebrate
Type: in vivo
Conditions: in Solanum lycopersicum, foliar, read-out: control of Phytophthora infestans

SMILES | pest or weed control at 200 ppm [%]
COC(=O)c1ccc2c(c1OC)B(O)OC2 [Compound 1, methyl 1-hydroxy-7-methoxy-3H-2,1-benzoxaborole-6-carboxylate] | ≥ 80
COC(=O)c1ccc2c(c1O)B(O)OC2 [Compound 2, methyl 1,7-dihydroxy-3H-2,1-benzoxaborole-6-carboxylate] | ≥ 80
COC(=O)c1ccc2c(c1Cl)B(O)OC2 [Compound 3, methyl 7-chloro-1-hydroxy-3H-2,1-benzoxaborole-6-carboxylate] | ≥ 80
CCOC(=O)c1ccc2c(c1Cl)B(O)OC2 [Compound 9, ethyl 7-chloro-1-hydroxy-3H-2,1-benzoxaborole-6-carboxylate] | ≥ 80
COc1c(C(=O)OCC(F)F)ccc2c1B(O)OC2 [Compound 12, 2,2-difluoroethyl 1-hydroxy-7-methoxy-3H-2,1-benzoxaborole-6-carboxylate] | ≥ 80
COc1c(C(=O)OCn2cccn2)ccc2c1B(O)OC2 [Compound 86, pyrazol-1-ylmethyl 1-hydroxy-7-methoxy-3H-2,1-benzoxaborole-6-carboxylate] | ≥ 80

Test system: Puccinia recondite f. sp. tritici
Test: Puccinia recondite f. sp. tritici / wheat / leaf disc preventative (brown rust)
Type: in vivo
Conditions: foliar, wheat leaf segments, inoculated 1 day after application, compared to untreated control
Method: 13. Puccinia recondite f. Sp. Tritici/Wheat/Leaf Disc Preventative (Brown Rust) Wheat leaf segments cv. Kanzler are placed on agar in multiwell plates (24-well format) and sprayed with the formulated test compound diluted in water. The leaf disks are inoculated with a spore suspension of the fungus 1 day after application. The inoculated leaf segments are incubated at 19° C. and 75% rh under a light regime of 12 h light/12 h darkness in a climate cabinet and the activity of a compound is assessed as percent disease control compared to untreated when an appropriate level of disease damage appears in untreated check leaf segments (7-9 days after application).

SMILES | pest or weed control at 200 ppm [%]
COC(=O)c1ccc2c(c1Cl)B(O)OC2 [Compound 3, methyl 7-chloro-1-hydroxy-3H-2,1-benzoxaborole-6-carboxylate] | ≥ 80
CCOC(=O)c1ccc2c(c1Cl)B(O)OC2 [Compound 9, ethyl 7-chloro-1-hydroxy-3H-2,1-benzoxaborole-6-carboxylate] | ≥ 80
COc1c(C(=O)OCC#Cc2ccccc2)ccc2c1B(O)OC2 [Compound 132, 3-phenylprop-2-ynyl 1-hydroxy-7-methoxy-3H-2,1-benzoxaborole-6-carboxylate] | ≥ 80

Test system: Pythium ultimum
Test: Pythium ultimum / liquid culture (seedling damping off)
Type: cell-based
Conditions: Globisporangium ultimum, growth inhibition photometrically 2-3 days after application, compared to untreated control
Summary of the method: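 Fungal mycelia fragments and oospores from fresh liquid culture mixed into potato dextrose broth and added to DMSO solutions of test compound. Incubated at 24° C.; growth inhibition read photometrically 2-3 days after application.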

SMILES | inhibition of growth at 20 ppm [%]
COC(=O)c1ccc2c(c1OC)B(O)OC2 [Compound 1, methyl 1-hydroxy-7-methoxy-3H-2,1-benzoxaborole-6-carboxylate] | ≥ 80
COC(=O)c1ccc2c(c1O)B(O)OC2 [Compound 2, methyl 1,7-dihydroxy-3H-2,1-benzoxaborole-6-carboxylate] | ≥ 80
COC(=O)c1ccc2c(c1Cl)B(O)OC2 [Compound 3, methyl 7-chloro-1-hydroxy-3H-2,1-benzoxaborole-6-carboxylate] | ≥ 80
CCOC(=O)c1ccc2c(c1Cl)B(O)OC2 [Compound 9, ethyl 7-chloro-1-hydroxy-3H-2,1-benzoxaborole-6-carboxylate] | ≥ 80
COc1c(C(=O)OCC(F)F)ccc2c1B(O)OC2 [Compound 12, 2,2-difluoroethyl 1-hydroxy-7-methoxy-3H-2,1-benzoxaborole-6-carboxylate] | ≥ 80
COc1c(C(=O)OCn2cccn2)ccc2c1B(O)OC2 [Compound 86, pyrazol-1-ylmethyl 1-hydroxy-7-methoxy-3H-2,1-benzoxaborole-6-carboxylate] | ≥ 80
COc1c(C(=O)OCC#Cc2ccccc2)ccc2c1B(O)OC2 [Compound 132, 3-phenylprop-2-ynyl 1-hydroxy-7-methoxy-3H-2,1-benzoxaborole-6-carboxylate] | ≥ 80

Test system: Thanatephorus cucumeris (Rhizoctonia solani)
Test: Thanatephorus cucumeris (Rhizoctonia solani) / liquid culture (foot rot, damping-off)
Type: cell-based
Conditions: growth inhibition photometrically 3-4 days after application, compared to untreated control
Method: 16. Thanatephorus cucumeris (Rhizoctonia solani)/Liquid Culture (Foot Rot, Damping-Off) Mycelia fragments of a newly grown liquid culture of the fungus are directly mixed into nutrient broth (PDB potato dextrose broth). After placing a (DMSO) solution of the test compounds into a microtiter plate (96-well format), the nutrient broth containing the fungal material is added. The test plates are incubated at 24° C. and the inhibition of growth is determined photometrically 3-4 days after application.

SMILES | inhibition of growth at 20 ppm [%]
COC(=O)c1ccc2c(c1OC)B(O)OC2 [Compound 1, methyl 1-hydroxy-7-methoxy-3H-2,1-benzoxaborole-6-carboxylate] | ≥ 80
COC(=O)c1ccc2c(c1O)B(O)OC2 [Compound 2, methyl 1,7-dihydroxy-3H-2,1-benzoxaborole-6-carboxylate] | ≥ 80
COC(=O)c1ccc2c(c1Cl)B(O)OC2 [Compound 3, methyl 7-chloro-1-hydroxy-3H-2,1-benzoxaborole-6-carboxylate] | ≥ 80
CCOC(=O)c1ccc2c(c1Cl)B(O)OC2 [Compound 9, ethyl 7-chloro-1-hydroxy-3H-2,1-benzoxaborole-6-carboxylate] | ≥ 80
COc1c(C(=O)OCn2cccn2)ccc2c1B(O)OC2 [Compound 86, pyrazol-1-ylmethyl 1-hydroxy-7-methoxy-3H-2,1-benzoxaborole-6-carboxylate] | ≥ 80

Test system: Sclerotinia sclerotiorum
Test: Sclerotinia sclerotiorum / liquid culture (cottony rot)
Type: cell-based
Conditions: growth inhibition photometrically 3-4 days after application, compared to untreated control
Method: 17. Sclerotinia sclerotiorum/Liquid Culture (Cottony Rot) Mycelia fragments of a newly grown liquid culture of the fungus are directly mixed into nutrient broth (PDB potato dextrose broth). After placing a (DMSO) solution of test compound into a microtiter plate (96-well format) the nutrient broth containing the fungal material is added. The test plates are incubated at 24° C. and the inhibition of growth is determined photometrically 3-4 days after application.

SMILES | inhibition of growth at 20 ppm [%]
COC(=O)c1ccc2c(c1OC)B(O)OC2 [Compound 1, methyl 1-hydroxy-7-methoxy-3H-2,1-benzoxaborole-6-carboxylate] | ≥ 80
COC(=O)c1ccc2c(c1O)B(O)OC2 [Compound 2, methyl 1,7-dihydroxy-3H-2,1-benzoxaborole-6-carboxylate] | ≥ 80
COC(=O)c1ccc2c(c1Cl)B(O)OC2 [Compound 3, methyl 7-chloro-1-hydroxy-3H-2,1-benzoxaborole-6-carboxylate] | ≥ 80
COc1c(C(=O)OCn2cccn2)ccc2c1B(O)OC2 [Compound 86, pyrazol-1-ylmethyl 1-hydroxy-7-methoxy-3H-2,1-benzoxaborole-6-carboxylate] | ≥ 80

Test system: Mycosphaerella graminicola (Septoria tritici)
Test: Mycosphaerella graminicola (Septoria tritici) / liquid culture (Septoria blotch)
Type: cell-based
Conditions: Zymoseptoria tritici, growth inhibition photometrically 4-5 days after application, compared to untreated control
Method: as §1, with “18. Mycosphaerella graminicola (Septoria tritici)/Liquid” for “3. Glomerella lagenarium (Colletotrichum lagenarium)/Liquid”, “(Septoria Blotch)” for “(Anthracnose)”, “determined” for “measured”, “4-5” for “3-4”

SMILES | inhibition of growth at 20 ppm [%]
COC(=O)c1ccc2c(c1OC)B(O)OC2 [Compound 1, methyl 1-hydroxy-7-methoxy-3H-2,1-benzoxaborole-6-carboxylate] | ≥ 80
COC(=O)c1ccc2c(c1O)B(O)OC2 [Compound 2, methyl 1,7-dihydroxy-3H-2,1-benzoxaborole-6-carboxylate] | ≥ 80
COC(=O)c1ccc2c(c1Cl)B(O)OC2 [Compound 3, methyl 7-chloro-1-hydroxy-3H-2,1-benzoxaborole-6-carboxylate] | ≥ 80
CCOC(=O)c1ccc2c(c1Cl)B(O)OC2 [Compound 9, ethyl 7-chloro-1-hydroxy-3H-2,1-benzoxaborole-6-carboxylate] | ≥ 80
COc1c(C(=O)OCC(F)F)ccc2c1B(O)OC2 [Compound 12, 2,2-difluoroethyl 1-hydroxy-7-methoxy-3H-2,1-benzoxaborole-6-carboxylate] | ≥ 80
COc1c(C(=O)OCn2cccn2)ccc2c1B(O)OC2 [Compound 86, pyrazol-1-ylmethyl 1-hydroxy-7-methoxy-3H-2,1-benzoxaborole-6-carboxylate] | ≥ 80
COc1c(C(=O)OCC#Cc2ccccc2)ccc2c1B(O)OC2 [Compound 132, 3-phenylprop-2-ynyl 1-hydroxy-7-methoxy-3H-2,1-benzoxaborole-6-carboxylate] | ≥ 80

Test system: not given
Test: not given
Conditions: not given

SMILES | melting point [°C]
COC(=O)c1ccc2c(c1O)B(O)OC2 [Compound 2, methyl 1,7-dihydroxy-3H-2,1-benzoxaborole-6-carboxylate] | 146 to 148
CCOC(=O)c1ccc2c(c1Cl)B(O)OC2 [Compound 9, ethyl 7-chloro-1-hydroxy-3H-2,1-benzoxaborole-6-carboxylate] | 132 to 133
